No end group written: not given here.
Tests used:
Type in all cases: cell-based
fibroblast cells (T1) = assay: Fibroblast proliferation assay (MTT), control cells; conditions: for Cell Proliferation Activity (% of control), T1: concentration not printed
Description: (§1) To determine if Saposin B polypeptides had anti-angiogenic activity, a series of overlapping polypeptides were synthesized and tested in the KS Y-1 cell proliferation assay. The overlapping polypeptides are SEQ ID NOs:13 though 43. Cell Proliferation assays in either KS cells or fibroblast. Cells were plated in 48 well plates at equal numbers in appropriate culture medium. Cells were treated with the test compounds at various concentrations on day one, and on day 3. MTT was done on day 5. KS cells were used to represent the activated endothelial cells, while fibroblast cells represent the control cells. The results are remarkable for the lack of toxicity to the fibroblast relative to the activated endothelial cells/KS cells.

KS Y-1 cells = assay: KS Y-1 cell proliferation assay (MTT); conditions: concentration not given
Description: as §1

[1] = test system: endothelial cells (HUVEC); assay: Growth inhibition of endothelial cells
Description: (§2) Typically, in an anti-proliferation assay, the suppression of growth in the presence of the compound to be tested is measured. For example, the above cells are incubated with the polypeptides of this invention for a suitable time and the decrease in the growth rate relative to a negative control, i.e., cells of the same cell line which have been incubated in media alone, is measured. Growth of the cell culture can be measured by any method acceptable to one of skill, including but not limited to, 3H-thymidine uptake, cell counting and tetrazolium dye uptake.
(§3) By SDS-PAGE, the bacterial product was smaller than the eukaryotic protein. Because prokaryotically expressed proteins are not glycosylated, the difference in molecular weights probably represents the presence of carbohydrate in the eukaryotic protein. Recombinant proteins were then tested in KS, endothelial and control cell lines. Activity was found only in KS cell lines and endothelial cells.

KS cell lines [2] = assay: KS cell migration in transwell plates; conditions: KS cell lines
Description: The assays were done in double chamber wells separated by fibrinogen-coated membrane. Chemotaxis was induced by bFGF (25 ng/mL) in the lower chamber. Endothelial cells or KS cells (5×10^4/mL) were placed in the upper chamber in the presence and absence of test polypeptides. Taxol at 10 ng/mL was used as a known inhibitor of migration. Cell migration across the membrane was quantitated after an overnight incubation.
Angiogenesis is mediated by complex biochemical processes including degradation of the basement membrane under existing blood vessel endothelial cells, followed by proliferation and migration of endothelial cells, followed by formation of capillary loops, and recruitment of vascular smooth muscle cells to encase the newly formed vessels and provide stability. KS and endothelial cell migration in the presence of Saposin B was studied in transwell culture plates with 8 μm pore membranes (Costar, Cambridge, Mass.).
Briefly, wells were coated with fibronectin (25 μg/mL) overnight, and endothelial cells or KS cells were plated in the upper chamber with 100 μL of DMEM/0.4% FCS. 500 μL of DMEM/0.4% FCS was added to the lower chamber and incubated at 37° C. for one hour. The test polypeptides, at various concentrations, were added to the upper chamber, and chemotactic agents (VEGF or bFGF at 20 ng/mL) were added to the lower cell-culture chambers. The plates were incubated for 5 hr at 37° C. and the cells crossing the fibronectin-coated membrane were counted after wiping the cells off the membrane in the upper chamber with a cotton swab.
The cells that traversed the membrane were fixed with Diff-Quik stain according to the manufacturer's instruction (Dade Diagnostics Inc., Aguada, PR). The cells were counted under a microscope at 320× in four randomly selected fields. The experiments were done in duplicate and repeated at least three times.

KS cell lines [3] = assay: Growth inhibition of KS cell lines by recombinant proteins; conditions: for growth inhibition / activity against KS cell lines: recombinant or naturally occurring protein
Description: as §2, §3

[4] = up to the highest concentration tested (50 μg/mL)

## VCQDCIQMV [SEQ ID NO:29]
Fibroblast cells (T1); T1, first value column
  Cell Proliferation Activity (% of control), T1: 95 % of control
Fibroblast cells (T1); T1, second value column
  Cell Proliferation Activity (% of control), T1: 86 % of control
KS Y-1 cells; KS Y-1, first value column
  Cell Proliferation Activity (% of control), KS Y-1: 65 % of control
KS Y-1 cells; KS Y-1
  Cell Proliferation Activity (% of control), KS Y-1: 33 % of control

## GDVSQDSIQMV [SEQ ID NO:20]
Fibroblast cells (T1); 10 μg/mL
  Fibroblast Proliferation, % of Control: 95.7 % of Control
Fibroblast cells (T1); 50 μg/mL
  Fibroblast Proliferation, % of Control: 95.7 % of Control
KS Y-1 cells; KS Y-1, first value column
  Cell Proliferation Activity (% of control), KS Y-1: 93 % of control
KS Y-1 cells; KS Y-1
  Cell Proliferation Activity (% of control), KS Y-1: 84 % of control

## DVCQDCIQMV [SEQ ID NO:21]
Fibroblast cells (T1); 1 μg/mL
  Fibroblast Proliferation, % of Control: 100.0 % of Control
Fibroblast cells (T1); 50 μg/mL
  Fibroblast Proliferation, % of Control: 87.0 % of Control
[1]
  growth inhibition / activity against endothelial cells: Only endothelial cells show dose dependent growth inhibition
KS Y-1 cells; KS Y-1, first value column
  Cell Proliferation Activity (% of control), KS Y-1: 29 % of control

## GDVCQDCIQMV [SEQ ID NO:19]
Fibroblast cells (T1); 1 μg/mL
  Fibroblast Proliferation, % of Control: 91.3 % of Control
Fibroblast cells (T1); 10 μg/mL
  Fibroblast Proliferation, % of Control: 91.3 % of Control
KS cell lines [2]; 1 μg/mL
  % Cells Migrating Through Membrane (of Control): 78.23%
KS cell lines [2]; 10 μg/mL
  % Cells Migrating Through Membrane (of Control): 40.32%
KS cell lines [2]; 50 μg/mL
  % Cells Migrating Through Membrane (of Control): 20.98%
KS Y-1 cells; KS Y-1, first value column
  Cell Proliferation Activity (% of control), KS Y-1: 28 % of control
KS Y-1 cells; KS Y-1
  Cell Proliferation Activity (% of control), KS Y-1: 8 % of control

## DVCQDCI [SEQ ID NO:26]
Fibroblast cells (T1); T1, first value column
  Cell Proliferation Activity (% of control), T1: 96 % of control
Fibroblast cells (T1); T1, second value column
  Cell Proliferation Activity (% of control), T1: 81 % of control
KS Y-1 cells; KS Y-1, first value column
  Cell Proliferation Activity (% of control), KS Y-1: 72 % of control
KS Y-1 cells; KS Y-1
  Cell Proliferation Activity (% of control), KS Y-1: 40 % of control

## QDCIQMV [SEQ ID NO:31, QDCIQMV]
Fibroblast cells (T1); T1, first value column
  Cell Proliferation Activity (% of control), T1: 87 % of control
Fibroblast cells (T1); T1, second value column
  Cell Proliferation Activity (% of control), T1: 80 % of control
KS Y-1 cells; KS Y-1, first value column
  Cell Proliferation Activity (% of control), KS Y-1: 74 % of control

## CQDCIQMV [SEQ ID NO:30]
Fibroblast cells (T1); T1, first value column
  Cell Proliferation Activity (% of control), T1: 92 % of control
Fibroblast cells (T1); T1, second value column
  Cell Proliferation Activity (% of control), T1: 84 % of control
KS Y-1 cells; KS Y-1, first value column
  Cell Proliferation Activity (% of control), KS Y-1: 77 % of control
KS Y-1 cells; KS Y-1
  Cell Proliferation Activity (% of control), KS Y-1: 35 % of control

## DVCQDCIQM [SEQ ID NO:24]
Fibroblast cells (T1); T1, first value column
  Cell Proliferation Activity (% of control), T1: 96 % of control
Fibroblast cells (T1); T1, second value column
  Cell Proliferation Activity (% of control), T1: 84 % of control
KS Y-1 cells; KS Y-1, first value column
  Cell Proliferation Activity (% of control), KS Y-1: 68 % of control
KS Y-1 cells; KS Y-1
  Cell Proliferation Activity (% of control), KS Y-1: 46 % of control

## DVCQDCIQ [SEQ ID NO:25]
Fibroblast cells (T1); T1, first value column
  Cell Proliferation Activity (% of control), T1: 98 % of control
Fibroblast cells (T1); T1, second value column
  Cell Proliferation Activity (% of control), T1: 89 % of control
KS Y-1 cells; KS Y-1, first value column
  Cell Proliferation Activity (% of control), KS Y-1: 72 % of control
KS Y-1 cells; KS Y-1
  Cell Proliferation Activity (% of control), KS Y-1: 39 % of control

## DCIQMV [SEQ ID NO:23]
KS Y-1 cells; KS Y-1, first value column
  Cell Proliferation Activity (% of control), KS Y-1: 68 % of control
KS Y-1 cells; KS Y-1
  Cell Proliferation Activity (% of control), KS Y-1: 51 % of control

## DVCQDC [SEQ ID NO:27]
Fibroblast cells (T1); T1, first value column
  Cell Proliferation Activity (% of control), T1: 88 % of control
Fibroblast cells (T1); T1, second value column
  Cell Proliferation Activity (% of control), T1: 75 % of control
KS Y-1 cells; KS Y-1, first value column
  Cell Proliferation Activity (% of control), KS Y-1: 60 % of control
KS Y-1 cells; KS Y-1
  Cell Proliferation Activity (% of control), KS Y-1: 22 % of control

## GDVCQ [SEQ ID NO:22]
Fibroblast cells (T1); 1 μg/mL
  Fibroblast Proliferation, % of Control: 95.7 % of Control
Fibroblast cells (T1); 10 μg/mL
  Fibroblast Proliferation, % of Control: 95.7 % of Control
Fibroblast cells (T1); 50 μg/mL
  Fibroblast Proliferation, % of Control: 87.0 % of Control
KS Y-1 cells; KS Y-1, first value column
  Cell Proliferation Activity (% of control), KS Y-1: 59 % of control
KS Y-1 cells; KS Y-1
  Cell Proliferation Activity (% of control), KS Y-1: 28 % of control

B1: Saposin C: sphingolipid-binding glycoprotein derived from Prosaposin, recombinant (protein, UniProt P07602 311-390, looked up)
Saposin-C: SDVYCEVCEFLVKEVTKLIDNNKTEKEILDAFDKMCSKLPKSLSEECQEVVDTYGSSILSILLEEVSPELVCSMLHLCSG
modifications: Saposin-C
[1]; [4]
  activity against endothelial cells: no activity
KS cell lines [3]; [4]
  activity against KS cell lines: no activity

B2: Saposin A: sphingolipid-binding glycoprotein derived from Prosaposin, recombinant (protein, UniProt P07602 60-142, looked up)
Saposin-A: SLPCDICKDVVTAAGDMLKDNATEEEILVYLEKTCDWLPKPNMSASCKEIVDSYLPVILDIIKGEMSRPGEVCSALNLCESLQ
modifications: Saposin-A
[1]
  growth inhibition / activity against endothelial cells: no activity
KS cell lines [3]
  growth inhibition / activity against KS cell lines: no activity

B3: Saposin D: sphingolipid-binding glycoprotein derived from Prosaposin, recombinant (protein, UniProt P07602 405-486, looked up)
Saposin-D: DGGFCEVCKKLVGYLDRNLEKNSTKQEILAALEKGCSFLPDPYQKQCDQFVAEYEPVLIEILVEVMDPSFVCLKIGACPSAH
modifications: Saposin-D
[1]
  growth inhibition / activity against endothelial cells: no activity
KS cell lines [3]
  growth inhibition / activity against KS cell lines: no activity

B4: Prosaposin: 70 kD glycoprotein, precursor of Saposin A, B, C and D; naturally occurring full-length (protein, listed as Homo sapiens)
chain: MYALFLLASLLGAALAGPVLGLKECTRGSAVWCQNVKTASDCGAVKHCLQTVWNKPTVKSLPCDICKDVVTAAGDMLKDNATEEEILVYLEKTCDWLPKPNMSASCKEIVDSYLPVILDIIKGEMSRPGEVCSALNLCESLQKHLAELNHQKQLESNKIPELDMTEVVAPFMANIPLLLYPQDGPRSKPQPKDNGDVCQDCIQMVTDIQTAVRTNSTFVQALVEHVKEECDRLGPGMADICKNYISQYSEIAIQMMMHMQPKEICALVGFCDEVKEMPMQTLVPAKVASKNVIPALELVEPIKKHEVPAKSDVYCEVCEFLVKEVTKLIDNNKTEKEILDAFDKMCSKLPKSLSEECQEVVDTYGSSILSILLEEVSPELVCSMLHLCSGTRLPALTVHVTQPKDGGFCEVCKKLVGYLDRNLEKNSTKQEILAALEKGCSFLPDPYQKQCDQFVAEYEPVLIEILVEVMDPSFVCLKIGACPSAHKPLLGTEKCIWGPSYWCQNTETAAQCNAVEHCKRHVWN
modifications: prosaposin
notes: 70 kD glycoprotein, precursor of Saposin A, B, C and D; naturally occurring full-length
[1]
  growth inhibition / activity against endothelial cells: no activity
KS cell lines [3]
  growth inhibition / activity against KS cell lines: no activity
